Measured values published in US20200163984A1, “USE OF ISOVALERYL SPIRAMYCIN I, II AND/OR III IN MANUFACTURING MEDICAMENT FOR TREATING AND/OR PREVENTING TUMOR, AND MEDICAMENT” (SHENYANG FUYANG PHARMACEUTICAL TECHNOLOGY CO., LTD., priority 2017, published 2020).

Experiments:
[1] = test system: transplanted tumor of human renal clear cell adenocarcinoma cell 786-O; test: 786-O transplanted tumor in nude mice; settings: for Tumor Volume (mm3) (d 1): d1
Procedure: (§1) 786-O cells in a logarithmic growth phase were taken and subjected to a trypan blue exclusion experiment showing that the cell viability was more than 95%, then the cells were subjected to trypsinization, centrifugation, and supernatant removal. Then cell concentration was adjusted to 1×10^7/ml with matrigel, then each nude mouse was inoculated subcutaneously with 0.2 ml of cells at its right armpit and recorded as the first day of inoculation. When the tumor grows to be greater than or equal to 100 mm^3, the mice were randomly divided into 11 groups with 6 mice in each group: a model group, a cyclophosphamide group, isovaleryl spiramycin I groups with doses of 25, 50 and 100 mg/kg, isovaleryl spiramycin II groups with doses of 25, 50 and 100 mg/kg, and isovaleryl spiramycin III groups with doses of 25, 50 and 100 mg/kg. Each group was continuously administered intragastrically for 30 days with a dose of 20 ml/kg. The mice were sacrificed the next day after drug withdrawal and the indicators were tested. The long diameter and short diameter of the tumor, and the body weight of each mouse were recorded every 3 days from drug administration to nude mouse sacrifice.
(§2) The body weight of the nude mice and the long diameter (a) and short diameter (b) of the transplanted tumor were measured every 3 days, and the tumor volume (v), relative tumor volume (RTV) and relative tumor proliferation rate (T/C) are calculated respectively according to the following formulas, wherein V=a×b^2/2; RTV=V/V0 (V0 is the tumor volume before administration, V is the tumor volume before sacrifice), and T/C (%)=treatment group RTV/model control group RTV×100%.
(§3) Each mouse was weighed and sacrificed. After the tumor was completely stripped off from the body of the mouse, the non-tumor tissues such as blood stains and fat were removed to weigh the tumor and calculate the tumor growth inhibition rate. The average tumor weight of each group of mice is used as an indicator of efficacy. Tumor growth inhibition rate (%)=(1−the average tumor weight of the treatment group/the average tumor weight of the model group)×100%.

[2] = test system: transplanted tumor of HT-29 cells; test: HT-29 transplanted tumor in nude mice; settings: for Inhibition Rate (%) / Tumor Weight: HT-29 nude mice; for Tumor Volume (mm3) (d30): d 30
Procedure: as §1, with “Then” for “786-O cells in a logarithmic growth phase were taken and subjected to a trypan blue exclusion experiment showing that the cell viability was more than 95%, then the cells were subjected to trypsinization, centrifugation, and supernatant removal. Then”, “group:” for “group: a model group, a cyclophosphamide group,”
as §2, §3

[3] = test system: transplanted tumor of mouse H22 liver cancer; test: Transplanted tumor of mouse H22 liver cancer; settings: for Tumor Volume (mm3) (d30): d 30; for Body Weight (g) (d1) / Body Weight (g) (d 7): mouse, in vivo
Procedure: The H22 cell strains cryopreserved in liquid nitrogen were resuscitated in Kunming mice. After 3 generations, the ascites of Kunming mice were taken and placed in a 50 ml centrifuge tube in which 10 ml of 0.9% normal saline was added, and then centrifuging was performed at 1000 rpm for 5 min at room temperature, and the obtained supernatant was removed. Then 10 ml of 0.9% normal saline was added to the tube to blow and mix well, and then the mixture was diluted to 5×10^6 live cells/ml with normal saline after counting. The tube was stored in ice water, and 75% ethanol was used to disinfect the skin under the right armpits of the mice. Each Kunming mouse was soon inoculated subcutaneously with 0.2 ml of the cells at the armpit of the right forelimb.
In the H22 liver cancer model, the mice inoculated with the tumor were randomly divided into groups with 10 mice in each group on the next day of inoculation. The groups included: a model control group, a positive drug cyclophosphamide control group (CTX, 26 mg/kg), isovaleryl spiramycin I groups with doses of 13, 26 and 52 mg/kg; isovaleryl spiramycin II groups with doses of 13, 26 and 52 mg/kg; isovaleryl spiramycin III groups with doses of 13, 26 and 52 mg/kg. Each group was continuously administered intragastrically for 7 days with a dose of 20 ml/kg.
The tumor-bearing mice were weighed and sacrificed the next day after the last administration. The subcutaneous tumors were dissected and weighed. The average tumor weight of each group is calculated, and the tumor inhibition rate is calculated.
Tumor inhibition rate=(1−T/C)×100%
T: average tumor weight of the drug-administered group; C: average tumor weight of the blank control group.

[4] = 786-O, high dose (100 mg/kg in method) i.g. 30 days
[5] = 786-O, low dose (25 mg/kg in method) i.g. 30 days
[6] = 786-O, medium dose (50 mg/kg in method) i.g. 30 days
[7] = HT-29, high dose (100 mg/kg in method) i.g. 30 days
[8] = HT-29, low dose (25 mg/kg in method) i.g. 30 days
[9] = HT-29, medium dose (50 mg/kg in method) i.g. 30 days

For `CCC(=O)O[C@@H]1CC(=O)O[C@H](C)C/C=C/C=C/[C@H](O[C@H]2CC[C@H](N(C)C)[C@@H](C)O2)[C@H](C)C[C@H](CC=O)[C@H](O[C@@H]2O[C@H](C)[C@@H](O[C@H]3C[C@@](C)(O)[C@@H](OC(=O)CC(C)C)[C@H](C)O3)[C@H](N(C)C)[C@H]2O)[C@H]1OC` [Isovaleryl spiramycin III, isovaleryl spiramycin III], the “Inhibition Rate (%)” value ([1]; 786-O nude mice, 25 mg/kg) was 35.80%, the “Relative Tumor Proliferation Rate (T/C)” value ([1]; 786-O nude mice, 25 mg/kg) was 73.13% and the “Relative Tumor Volume (RTV)” value ([1]; 786-O nude mice, 25 mg/kg) was 18.90 ± 3.60. The “Tumor Weight” value ([1]; 786-O nude mice, 25 mg/kg) was 1.38 ± 0.42 g, the “Tumor Volume (mm3) (d 1)” value ([1]; 786-O nude mice, 25 mg/kg) was 106.47 ± 6.86 mm3 and the “Tumor Volume (mm3) (d30)” value ([1]; 786-O nude mice, 25 mg/kg) was 1479.90 ± 458.97 mm3. For the same molecule, the “Inhibition Rate (%)” value ([1]; 786-O nude mice, 50 mg/kg) was 52.14%, the “Relative Tumor Proliferation Rate (T/C)” value ([1]; 786-O nude mice, 50 mg/kg) was 51.33% and the “Relative Tumor Volume (RTV)” value ([1]; 786-O nude mice, 50 mg/kg) was 9.76 ± 1.44. The “Tumor Weight” value ([1]; 786-O nude mice, 50 mg/kg) was 1.02 ± 0.27 g, the “Tumor Volume (mm3) (d 1)” value ([1]; 786-O nude mice, 50 mg/kg) was 96.82 ± 8.52 mm3 and the “Tumor Volume (mm3) (d30)” value ([1]; 786-O nude mice, 50 mg/kg) was 944.60 ± 112.60 mm3. For the same molecule, the “Inhibition Rate (%)” value ([1]; 786-O nude mice, 100 mg/kg) was 62.49%, the “Relative Tumor Proliferation Rate (T/C)” value ([1]; 786-O nude mice, 100 mg/kg) was 34.20% and the “Relative Tumor Volume (RTV)” value ([1]; 786-O nude mice, 100 mg/kg) was 6.18 ± 0.61. For the same molecule, the “Tumor Weight” value ([1]; 786-O nude mice, 100 mg/kg) was 0.80 ± 0.05 g, the “Tumor Volume (mm3) (d 1)” value ([1]; 786-O nude mice, 100 mg/kg) was 103.26 ± 9.71 mm3 and the “Tumor Volume (mm3) (d30)” value ([1]; 786-O nude mice, 100 mg/kg) was 635.26 ± 78.22 mm3. For the same molecule, the “Relative Tumor Proliferation Rate (T/C)” value [1, 4] was 34.20%, the “tumor growth inhibition rate” value [1, 4] was 62.49% and the “Relative Tumor Proliferation Rate (T/C)” value [1, 5] was 73.13%. The “tumor growth inhibition rate” value [1, 5] was 35.80%, the “tumor volume and relative tumor volume compared with the model group” value ([1]; 786-O, low, medium and high doses, P<0.05) was “significantly lower” and the “Relative Tumor Proliferation Rate (T/C)” value [1, 6] was 51.33%. The “tumor growth inhibition rate” value [1, 6] was 52.14%, the “mouse weight compared with the model group” value ([1]; mouse, in vivo) was “no significant changes” and the “Body Weight (g) (d1)” value ([1]; mouse, in vivo, 25 mg/kg) was 22.72 ± 0.78 g. For the same molecule, the “Body Weight (g) (d30)” value ([1]; mouse, in vivo, 25 mg/kg) was 23.85 ± 0.89 g, the “Body Weight (g) (d1)” value ([1]; mouse, in vivo, 50 mg/kg) was 21.43 ± 1.08 g and the “Body Weight (g) (d30)” value ([1]; mouse, in vivo, 50 mg/kg) was 22.33 ± 1.09 g. For the same molecule, the “Body Weight (g) (d1)” value ([1]; mouse, in vivo, 100 mg/kg) was 22.28 ± 1.72 g, the “Body Weight (g) (d30)” value ([1]; mouse, in vivo, 100 mg/kg) was 23.43 ± 1.69 g and the “Relative Tumor Proliferation Rate (T/C)” value [2, 7] was 35.63%. The “tumor growth inhibition rate” value [2, 7] was 63.19%, the “Relative Tumor Proliferation Rate (T/C)” value [2, 8] was 85.54% and the “tumor growth inhibition rate” value [2, 8] was 19.22%. For the same molecule, the “tumor volume and relative tumor volume compared with the model group” value ([2]; HT-29, low, medium and high doses, P<0.05) was “significantly lower”, the “Relative Tumor Proliferation Rate (T/C)” value [2, 9] was 53.48% and the “tumor growth inhibition rate” value [2, 9] was 41.35%. The “Inhibition Rate (%)” value ([2]; 25 mg/kg) was 19.22%, the “Tumor Weight” value ([2]; 25 mg/kg) was 1.90 ± 0.39 g and the “Inhibition Rate (%)” value ([2]; 50 mg/kg) was 41.35%. For the same molecule, the “Tumor Weight” value ([2]; 50 mg/kg) was 1.38 ± 0.37 g, the “Inhibition Rate (%)” value ([2]; 100 mg/kg) was 63.19% and the “Tumor Weight” value ([2]; 100 mg/kg) was 0.87 ± 0.34 g. The “Relative Tumor Proliferation Rate (T/C)” value ([2]; dose 25 mg/kg) was 85.54%, the “Relative Tumor Volume (RTV)” value ([2]; dose 25 mg/kg) was 12.32 ± 4.51 and the “Tumor Volume (mm3) (d 1)” value ([2]; dose 25 mg/kg) was 154.49 ± 33.07 mm3. For the same molecule, the “Tumor Volume (mm3) (d30)” value ([2]; dose 25 mg/kg) was 1803.16 ± 368.50 mm3, the “Relative Tumor Proliferation Rate (T/C)” value ([2]; dose 50 mg/kg) was 53.48% and the “Relative Tumor Volume (RTV)” value ([2]; dose 50 mg/kg) was 7.70 ± 1.65. The “Tumor Volume (mm3) (d 1)” value ([2]; dose 50 mg/kg) was 161.76 ± 30.69 mm3, the “Tumor Volume (mm3) (d30)” value ([2]; dose 50 mg/kg) was 1252.64 ± 404.06 mm3 and the “Relative Tumor Proliferation Rate (T/C)” value ([2]; dose 100 mg/kg) was 35.63%. The “Relative Tumor Volume (RTV)” value ([2]; dose 100 mg/kg) was 5.13 ± 1.13, the “Tumor Volume (mm3) (d 1)” value ([2]; dose 100 mg/kg) was 160.38 ± 38.86 mm3 and the “Tumor Volume (mm3) (d30)” value ([2]; dose 100 mg/kg) was 826.76 ± 259.70 mm3. The “mouse weight compared with the model group” value ([2]; mouse, in vivo) was “no significant changes”, the “Body Weight (g) (d1)” value ([2]; mouse, in vivo, 25 mg/kg) was 21.31 ± 1.23 g and the “Body Weight (g) (d30)” value ([2]; mouse, in vivo, 25 mg/kg) was 21.19 ± 1.52 g. For the same molecule, the “Body Weight (g) (d1)” value ([2]; mouse, in vivo, 50 mg/kg) was 21.22 ± 1.24 g, the “Body Weight (g) (d30)” value ([2]; mouse, in vivo, 50 mg/kg) was 21.00 ± 0.98 g and the “Body Weight (g) (d1)” value ([2]; mouse, in vivo, 100 mg/kg) was 21.34 ± 1.78 g. The “Body Weight (g) (d30)” value ([2]; mouse, in vivo, 100 mg/kg) was 21.09 ± 1.43 g, the “growth of H22 liver cancer in mice” value ([3]; 13, 26 and 52 mg/kg i.g. 7 days) was “significantly inhibit” and the “Relative Tumor Proliferation Rate (T/C)” value ([3]; dose 12.5 mg/kg) was 69.68. For the same molecule, the “Relative Tumor Volume (RTV)” value ([3]; dose 12.5 mg/kg) was 6.92 ± 1.88, the “Tumor Volume (mm3) (d 1)” value ([3]; dose 12.5 mg/kg) was 121.58 ± 13.44 mm3 and the “Tumor Volume (mm3) (d30)” value ([3]; dose 12.5 mg/kg) was 824.36 ± 143.90 mm3. For the same molecule, the “Inhibition Rate (%)” value ([3]; dose 13 mg/kg) was 33.55%, the “Tumor” value ([3]; dose 13 mg/kg) was 1.01 ± 0.22 g and the “Relative Tumor Proliferation Rate (T/C)” value ([3]; dose 25 mg/kg) was 56.90. For the same molecule, the “Relative Tumor Volume (RTV)” value ([3]; dose 25 mg/kg) was 5.65 ± 1.74, the “Tumor Volume (mm3) (d 1)” value ([3]; dose 25 mg/kg) was 118.16 ± 21.72 mm3 and the “Tumor Volume (mm3) (d30)” value ([3]; dose 25 mg/kg) was 650.32 ± 171.23 mm3. For the same molecule, the “Inhibition Rate (%)” value ([3]; dose 26 mg/kg) was 44.08%, the “Tumor” value ([3]; dose 26 mg/kg) was 0.85 ± 0.34 g and the “Relative Tumor Proliferation Rate (T/C)” value ([3]; dose 50 mg/kg) was 43.45. The “Relative Tumor Volume (RTV)” value ([3]; dose 50 mg/kg) was 4.31 ± 1.65, the “Tumor Volume (mm3) (d 1)” value ([3]; dose 50 mg/kg) was 122.15 ± 49.44 mm3 and the “Tumor Volume (mm3) (d30)” value ([3]; dose 50 mg/kg) was 468.19 ± 110.04 mm3. For the same molecule, the “Inhibition Rate (%)” value ([3]; dose 52 mg/kg) was 51.97%, the “Tumor” value ([3]; dose 52 mg/kg) was 0.73 ± 0.45 g and the “Body Weight (g) (d1)” value ([3]; 13 mg/kg) was 23.67 ± 3.73 g. The “Body Weight (g) (d 7)” value ([3]; 13 mg/kg) was 26.33 ± 1.43 g, the “Body Weight (g) (d1)” value ([3]; 26 mg/kg) was 24.13 ± 1.46 g and the “Body Weight (g) (d 7)” value ([3]; 26 mg/kg) was 27.47 ± 1.21 g. The “Body Weight (g) (d1)” value ([3]; 52 mg/kg) was 24.32 ± 1.12 g and the “Body Weight (g) (d 7)” value ([3]; 52 mg/kg) was 27.35 ± 0.80 g.
